Experiments:
recombinant PKM1 = molecular target: T1, recombinant PKM1 (Homo sapiens, UniProt P14618); assay: Recombinant PKM1 kinase activity assay; type: biochemical; settings: after 20 min of exposure
T1 construct: purchased Sigma-Aldrich SRP0415
Experimental: (§1) As this cell-based kinase assay could not rule out the involvement of PKM1, we examined the abilities of compound 1 to inhibit the kinase activity of recombinant PKM2 (SAE0021, Sigma-Aldrich) versus recombinant PKM1 (SRP0415, Sigma-Aldrich) using a commercial PKM assay kit. […] In brief, PC-9 cells were exposed to different concentrations of compound 2 in the presence of compound 1 (1 μM) for 1 hour, lysed, and the cell lysates were treated with biotin-azide, followed by streptavidin bead pulldown under the aforementioned conditions. […] The antigen of compound 1 was prepared by coupling this small molecule with cysteine residues of ovalbumin, which was then used for immunization in guinea pigs.
(§2) Pyruvate kinase activity assays. PC-9 cells were seeded into 6 cm dishes at a concentration of 5×10^5 cells/mL. After 24 hours, cells were treated with 0.25 μM compound 1 or DMSO for 6 hours. The pyruvate kinase activity of compound 1-treated PC-9 and vehicle control cells was measured by using a commercial colorimetric assay kit from BioVision (Milpitas, Calif., USA) according to the manufacturer's protocol. In addition, to verify the specificity of compound 1 toward PKM2 versus PKM1, the inhibition of the kinase activity of recombinant PKM1 (SRP0415, Sigma-Aldrich) and recombinant PKM2 (SAE0021, Sigma-Aldrich) by compound 1 was conducted using the aforementioned assay kit.

[1] = test system: PKM2, EGFR, Stat3, β-catenin in PC-9 cells; assay: Immunoblot analysis of oncogenic effectors in PC-9 cells; type: cell-based, human; settings: Western blot, 24 hours
Experimental: Immunoblot analysis. PC-9 cells were seeded into 6 cm dish at a concentration of 5×10^5 cells/mL. After 24 hours, cells were treated with 0-1 μM compound 1 or DMSO alone for 24 hours. The cells were harvested at 24 hours, and protein extractions were carried out. The protein lysate was subjected to 10% SDS-PAGE and transferred to a nitrocellulose membrane (GE Healthcare Life Sciences). Protein expression was analyzed by Western blotting using primary antibodies against PKM2, EGFR, p-STAT3, STAT3, p-β-catenin (Cell Signaling Technology), β-catenin (Santa Cruz Biotechnology) and β-actin (Sigma-Aldrich), followed by incubation with horseradish peroxidase-conjugated secondary (Jackson ImmunoResearch Laboratories). Specific proteins were detected by chemiluminescence using ECL Plus Western Blotting Detection Reagents (GE Healthcare Biosciences).

H460 lung cancer cells = assay: MTT cell viability assay, H460; type: cell-based; settings: Homo sapiens, NCI-H460, H460 (wild type EGFR), 24 hours
Excerpt: (§3) Cell lines, cell culture, biochemical reagents, and antibodies. MiaPaCa-2, AsPC-1, and Panc-1 human pancreatic cancer cells, MCF-7 and MDA-MB-231 breast cancer cells, SCC4 and SCC2059 oral cancer cells, PC-3 and LNCaP prostate cancer cells, H157, H460, H1975, PC-9 and H1650 lung cancer cells were obtained from the American Type Culture Collection (ATCC, Manassas, Va.). All these cells were maintained in recommended growth medium (RPMI 1640 or DMEM) supplemented with 10% fetal bovine serum (FBS) (Invitrogen, Carlsbad, Calif., USA) and antibiotics at 37° C. in a humidified incubator containing 5% CO2. For SILAC experiments, PC-9 cells were grown in SILAC DMEM medium (Thermo Fisher) supplemented with 10% dialyzed FBS and 100 μg/mL each of unlabeled L-arginine and L-lysine (light medium) or ^13C/^15N stable isotope-labeled L-arginine and L-lysine (heavy medium). […]
(§4) Cell viability assays. Drug effects on cell viability was assessed by 3-(4,5-dimethylthiazol-2-yl)-2,5-diphenyltetrazolium bromide ([…]) assays. […] The medium was then removed from each well and replaced with DMSO to dissolve the reduced MTT dye for subsequent colorimetric measurement of absorbance at 560 nm. Cell viabilities are expressed as percentages of viable cells relative to the corresponding vehicle-treated control group.

PKM2 = PKM2 (Homo sapiens, UniProt P14618); assay: Recombinant PKM2 kinase activity assay; type: biochemical; set-up: purchased Sigma-Aldrich SAE0021; settings: after 20 min of exposure
PKM2, sequence (P14618 whole entry): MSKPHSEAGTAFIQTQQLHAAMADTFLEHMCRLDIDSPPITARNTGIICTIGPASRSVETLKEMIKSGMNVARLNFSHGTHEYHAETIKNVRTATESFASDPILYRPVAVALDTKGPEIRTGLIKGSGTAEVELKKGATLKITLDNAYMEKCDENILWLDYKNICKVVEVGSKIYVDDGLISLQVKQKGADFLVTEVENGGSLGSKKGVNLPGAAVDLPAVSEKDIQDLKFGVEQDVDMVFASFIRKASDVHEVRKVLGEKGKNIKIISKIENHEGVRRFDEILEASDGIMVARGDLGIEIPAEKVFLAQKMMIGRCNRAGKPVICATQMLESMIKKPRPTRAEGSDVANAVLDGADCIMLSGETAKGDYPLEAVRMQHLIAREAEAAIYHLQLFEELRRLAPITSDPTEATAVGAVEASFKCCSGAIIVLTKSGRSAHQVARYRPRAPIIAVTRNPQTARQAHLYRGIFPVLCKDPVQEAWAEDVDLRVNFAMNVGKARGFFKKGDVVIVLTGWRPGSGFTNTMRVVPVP
Experimental: as §1, §2

[2] = test system: 246 different kinases (activity) and 143 different kinases (substrate binding); assay: Kinase profiling analysis (Life Technologies' SelectScreen Profiling Service); type: biochemical; settings: 500 nM; activity of 246 kinases, substrate binding to 143 kinases
Experimental: To shed light onto its potential target, compound 1 was submitted to a commercial vendor for kinase profiling analysis (Life Technologies' SelectScreen Profiling Service), in which the inhibitory effects of compound 1 at 500 nM on the activity of 246 different kinases as well as substrate binding to 143 different kinases were tested.

PC-9 lung cancer cells = assay: MTT cell viability assay, PC-9; type: cell-based; settings: Homo sapiens, PC-9 (mutant EGFR), 24 hours
Excerpt: as §3, §4

H157 lung cancer cells = assay: MTT cell viability assay, H157; type: cell-based; settings: Homo sapiens, NCI-H157, H157 (wild type EGFR), 24 hours
Excerpt: as §3, §4

PC-9 xenograft tumors = assay: PC-9 xenograft tumor model in nude mice; type: in vivo; settings: 10 mg/kg once daily i.p., 25 days
Experimental: Pursuant to the above in vitro findings, we evaluated the in vivo tumor-suppressive efficacy of compound 1 in an ectopic PC-9 xenograft tumor model. Athymic nude mice bearing established subcutaneous PC-9 tumors were randomly divided into two groups (n=8 for each group; initial tumor volume: vehicle, 50±11 mm^3; compound 1, 53±6 mm^3), and were treated once daily with compound 1 at 10 mg/kg or vehicle via intraperitoneal injection.
In vivo efficacy study. Athymic nude mice were purchased from the National Laboratory Animal Center (Taipei, Taiwan). To assess the effect of compound 1 on tumor growth in vivo, 1×10^6 PC-9 cells were mixed with Matrigel (BD Biosciences) at a 1:1 ratio and subcutaneously implanted into nude mice (6-week-old, female; a total of 16 mice). After 7 days, mice were treated with once daily vehicle or 10 mg/kg compound 1 in sterile water containing 0.5% methylcellulose (w/v)+0.1% Tween-80 (v/v) (n=8 for each group). Tumors were measured with calipers and volumes were calculated using V=(width^2×length)×0.52. On day 25, tumors were excised and weighed. Tumor specimens were collected, and expression of target proteins in tumor lysates were analyzed by Western blotting, which were quantified by ImageJ. according to a published online procedure. (https://openwetware.org/wiki/Protein_Quantification_Using_ImageJ).

H1975 lung cancer cells = assay: MTT cell viability assay, H1975; type: cell-based; settings: Homo sapiens, NCI-H1975, H1975 (mutant EGFR), 24 hours
Excerpt: as §3, §4

T1 sequence (P14618 1-531 isoform P14618-2): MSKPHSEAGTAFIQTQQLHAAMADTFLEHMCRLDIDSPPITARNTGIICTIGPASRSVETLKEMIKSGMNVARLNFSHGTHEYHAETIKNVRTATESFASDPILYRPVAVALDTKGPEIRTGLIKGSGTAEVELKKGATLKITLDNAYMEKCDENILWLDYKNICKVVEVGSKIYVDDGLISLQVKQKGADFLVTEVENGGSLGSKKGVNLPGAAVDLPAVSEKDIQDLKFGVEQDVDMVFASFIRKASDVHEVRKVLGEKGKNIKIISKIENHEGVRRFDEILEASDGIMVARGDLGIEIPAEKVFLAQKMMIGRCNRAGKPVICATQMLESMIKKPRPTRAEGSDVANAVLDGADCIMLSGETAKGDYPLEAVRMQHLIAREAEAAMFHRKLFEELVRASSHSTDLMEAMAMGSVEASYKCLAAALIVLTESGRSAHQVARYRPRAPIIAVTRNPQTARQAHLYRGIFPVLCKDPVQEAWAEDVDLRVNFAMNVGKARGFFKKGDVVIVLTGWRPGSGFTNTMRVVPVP

inhibition of kinase activity of recombinant PKM1 (recombinant PKM1): no appreciable inhibition | IC50 (H460 lung cancer cells): 1.5 µM | inhibition of kinase activity of recombinant PKM2 (PKM2): suppress the kinase activity of PKM2 | IC50 (PC-9 lung cancer cells): 0.5 µM | IC50 (H157 lung cancer cells): > 2 µM | IC50 (H1975 lung cancer cells): 1 µM
SMILES: C#CC(=O)Nc1ccc(-n2nc(CCC(=O)NC)cc2-c2ccc(-c3ccc(C(F)(F)F)cc3)cc2)cc1 [compound 1, N-(4-(3-(3-(Methylamino)-3-oxopropyl)-5-(4′-(trifluoromethyl)-[1,1′-biphenyl]-4-yl)-1H-pyrazol-1-yl)phenyl)propiolamide]
expression and/or phosphorylation of PKM2, EGFR, Stat3, β-catenin [1]: downregulated the expression of PKM2 and EGFR, accompanied by parallel decreases in the phosphorylation and expression of Stat3 and β-catenin | inhibition of kinases in profiling panel [2]: none of the kinases examined was effectively inhibited | expression of PKM2 and binding partners in tumor lysates (PC-9 xenograft tumors; Western blot): significant suppression of the expression of PKM2 and its binding partners EGFR, Stat3, and β-catenin | body weight loss (PC-9 xenograft tumors; relative to control): No appreciable weight loss | tumor growth (tumor volume and tumor weight) (PC-9 xenograft tumors; relative to vehicle): significantly suppressed tumor growth

From patent publication US11117888B2, “Irreversible inhibitors of pyruvate kinase M2 and the use thereof” (China Medical University, priority 2020, dated 2021)
